Columns and labels:
Assay in all cases: Test C postemergence
blackgrass = type: in vivo, Alopecurus myosuroides
Procedure, shortened: (§1)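 Greenhouse pot test: preemergence application onto freshly seeded loam/sand mix, postemergence application onto seedlings (1–4 leaves, 2–18 cm) in peat-vermiculite substrate. Responses scored visually 13 to 15 days later relative to controls, where 0 means no effect and 100 means complete control; a dash indicates no result.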

ryegrass, Italian = type: in vivo, Lolium multiflorum
Procedure, shortened: as §1

galium = type: in vivo, Galium aparine
Procedure, shortened: as §1

corn = type: in vivo, Zea mays
Procedure, shortened: as §1

crabgrass, large = type: in vivo, Digitaria sanguinalis
Procedure, shortened: as §1

foxtail, giant = type: in vivo, Setaria faberii
Procedure, shortened: as §1

johnsongrass = type: in vivo, Sorghum halepense
Procedure, shortened: as §1

morningglory = type: in vivo, Ipomoea coccinea
Procedure, shortened: as §1

nutsedge, yellow = type: in vivo, Cyperus esculentus
Procedure, shortened: as §1

pigweed = type: in vivo, Amaranthus retroflexus
Procedure, shortened: as §1

ragweed = type: in vivo, Ambrosia elation
Procedure, shortened: as §1

soybean = type: in vivo, Glycine max
Procedure, shortened: as §1

oilseed rape = type: in vivo, Brassica napus
Procedure, shortened: as §1

waterhemp = type: in vivo, Amaranthus rudis
Procedure, shortened: as §1

oat, wild = type: in vivo, Avena fatua
Procedure, shortened: as §1

kochia = type: in vivo, Kochia scoparia
Procedure, shortened: as §1

velvetleaf = type: in vivo, Abutilon theophrasti
Procedure, shortened: as §1

chickweed = type: in vivo, Stellaria media
Procedure, shortened: as §1

[1] = Postemergence, 31 g ai/ha, visually evaluated after 13 to 15 days
[2] = postemergence, 62 g ai/ha, scale 0 to 100
[3] = postemergence, 250 g ai/ha, scale 0 to 100 (0 no effect, 100 complete control)
[4] = postemergence, 125 g ai/ha, scale 0 to 100, 0 no effect, 100 complete control

CCOc1cc(C(=O)NCC(F)(F)F)nn1Cc1ccnc(C(F)(F)F)c1 [Compound 104]
Plant response rating (scale of 0 to 100 where 0 is no effect and 100 is complete control), Blackgrass (blackgrass; [1]): 10 | Blackgrass plant response rating (blackgrass; [2]): 10 | Plant response rating, Blackgrass (blackgrass; [3]): 80 | Plant response rating, Blackgrass (blackgrass; [4]): 40 | Plant response rating (scale of 0 to 100 where 0 is no effect and 100 is complete control), Ryegrass, Italian (ryegrass, Italian; [1]): 5 | Ryegrass, Italian plant response rating (ryegrass, Italian; [2]): 5 | Plant response rating, Ryegrass, Italian (ryegrass, Italian; [3]): 80 | Plant response rating, Ryegrass, Italian (ryegrass, Italian; [4]): 35 | Plant response rating (scale of 0 to 100 where 0 is no effect and 100 is complete control), Galium (galium; [1]): 60 | Galium plant response rating (galium; [2]): 60 | Plant response rating, Galium (galium; [3]): 85 | Plant response rating, Galium (galium; [4]): 85 | Plant response rating (scale of 0 to 100 where 0 is no effect and 100 is complete control), Corn (corn; [1]): 5 | Corn plant response rating (corn; [2]): 35 | Plant response rating, Corn (corn; [3]): 95 | Plant response rating, Corn (corn; [4]): 35 | Plant response rating (scale of 0 to 100 where 0 is no effect and 100 is complete control), Crabgrass, Large (crabgrass, large; [1]): 5 | Crabgrass, Large plant response rating (crabgrass, large; [2]): 70 | Plant response rating, Crabgrass, Large (crabgrass, large; [3]): 95 | Plant response rating, Crabgrass, Large (crabgrass, large; [4]): 75 | Plant response rating (scale of 0 to 100 where 0 is no effect and 100 is complete control), Foxtail, Giant (foxtail, giant; [1]): 5 | Foxtail, Giant plant response rating (foxtail, giant; [2]): 85 | Plant response rating, Foxtail, Giant (foxtail, giant; [3]): 98 | Plant response rating, Foxtail, Giant (foxtail, giant; [4]): 90 | Plant response rating (scale of 0 to 100 where 0 is no effect and 100 is complete control), Johnsongrass (johnsongrass; [1]): 5 | Johnsongrass plant response rating (johnsongrass; [2]): 15 | Plant response rating, Johnsongrass (johnsongrass; [3]): 85 | Plant response rating, Johnsongrass (johnsongrass; [4]): 40 | Plant response rating (scale of 0 to 100 where 0 is no effect and 100 is complete control), Morningglory (morningglory; [1]): 0 | Morningglory plant response rating (morningglory; [2]): 80 | Plant response rating, Morningglory (morningglory; [3]): 98 | Plant response rating, Morningglory (morningglory; [4]): 95 | Plant response rating (scale of 0 to 100 where 0 is no effect and 100 is complete control), Nutsedge, Yellow (nutsedge, yellow; [1]): 5 | Nutsedge, Yellow plant response rating (nutsedge, yellow; [2]): 5 | Plant response rating, Nutsedge, Yellow (nutsedge, yellow; [3]): 60 | Plant response rating, Nutsedge, Yellow (nutsedge, yellow; [4]): 10 | Plant response rating (scale of 0 to 100 where 0 is no effect and 100 is complete control), Pigweed (pigweed; [1]): 50 | Pigweed plant response rating (pigweed; [2]): 85 | Plant response rating, Pigweed (pigweed; [3]): 98 | Plant response rating, Pigweed (pigweed; [4]): 95 | Plant response rating (scale of 0 to 100 where 0 is no effect and 100 is complete control), Ragweed (ragweed; [1]): 85 | Ragweed plant response rating (ragweed; [2]): 85 | Plant response rating, Ragweed (ragweed; [3]): 95 | Plant response rating, Ragweed (ragweed; [4]): 95 | Plant response rating (scale of 0 to 100 where 0 is no effect and 100 is complete control), Soybean (soybean; [1]): 90 | Soybean plant response rating (soybean; [2]): 95 | Plant response rating, Soybean (soybean; [3]): 95 | Plant response rating, Soybean (soybean; [4]): 95 | Plant response rating (scale of 0 to 100 where 0 is no effect and 100 is complete control), Oilseed Rape (oilseed rape; [1]): 40 | Oilseed Rape plant response rating (oilseed rape; [2]): 50 | Plant response rating, Oilseed Rape (oilseed rape; [3]): 85 | Plant response rating, Oilseed Rape (oilseed rape; [4]): 60 | Plant response rating (scale of 0 to 100 where 0 is no effect and 100 is complete control), Waterhemp (waterhemp; [1]): 35 | Waterhemp plant response rating (waterhemp; [2]): 85 | Plant response rating, Waterhemp (waterhemp; [3]): 98 | Plant response rating (scale of 0 to 100 where 0 is no effect and 100 is complete control), Oat, Wild (oat, wild; [1]): 5 | Oat, Wild plant response rating (oat, wild; [2]): 15 | Plant response rating, Oat, Wild (oat, wild; [3]): 85 | Plant response rating, Oat, Wild (oat, wild; [4]): 35 | Plant response rating (scale of 0 to 100 where 0 is no effect and 100 is complete control), Kochia (kochia; [1]): 85 | Kochia plant response rating (kochia; [2]): 90 | Plant response rating, Kochia (kochia; [3]): 90 | Plant response rating, Kochia (kochia; [4]): 90 | Plant response rating (scale of 0 to 100 where 0 is no effect and 100 is complete control), Velvetleaf (velvetleaf; [1]): 25 | Velvetleaf plant response rating (velvetleaf; [2]): 40 | Plant response rating, Velvetleaf (velvetleaf; [3]): 80 | Plant response rating, Velvetleaf (velvetleaf; [4]): 65 | Plant response rating (scale of 0 to 100 where 0 is no effect and 100 is complete control), Chickweed (chickweed; [1]): 55 | Chickweed plant response rating (chickweed; [2]): 70 | Plant response rating, Chickweed (chickweed; [3]): 90 | Plant response rating, Chickweed (chickweed; [4]): 80

Reference: patent publication US20150105252A1, “SUBSTITUTED PYRAZOLES AS HERBICIDES” (E I DU PONT DE NEMOURS AND COMPANY, priority 2013, published 2015)
